Laboratory results: patent US9029378B2, “Substituted bicyclic aromatic carboxamide and urea compounds as vanilloid receptor ligands” (Gruenenthal GmbH, priority 2011, dated 2015)

The compounds below were run against T1, vanilloid receptor 1 (VR1/TRPV1 receptor) (Homo sapiens, UniProt Q8NER1) (assay: Functional testing on the vanilloid receptor 1 (FLIPR Ca2+ influx assay, capsaicin)). Settings: @5 μM; Cap=capsaicin; read-out: inhibition (as a percentage), (f) (human being) Cap.
T1 construct: expressed in transfected cells; host or cells: CHO K1
T1 sequence (Q8NER1 whole entry): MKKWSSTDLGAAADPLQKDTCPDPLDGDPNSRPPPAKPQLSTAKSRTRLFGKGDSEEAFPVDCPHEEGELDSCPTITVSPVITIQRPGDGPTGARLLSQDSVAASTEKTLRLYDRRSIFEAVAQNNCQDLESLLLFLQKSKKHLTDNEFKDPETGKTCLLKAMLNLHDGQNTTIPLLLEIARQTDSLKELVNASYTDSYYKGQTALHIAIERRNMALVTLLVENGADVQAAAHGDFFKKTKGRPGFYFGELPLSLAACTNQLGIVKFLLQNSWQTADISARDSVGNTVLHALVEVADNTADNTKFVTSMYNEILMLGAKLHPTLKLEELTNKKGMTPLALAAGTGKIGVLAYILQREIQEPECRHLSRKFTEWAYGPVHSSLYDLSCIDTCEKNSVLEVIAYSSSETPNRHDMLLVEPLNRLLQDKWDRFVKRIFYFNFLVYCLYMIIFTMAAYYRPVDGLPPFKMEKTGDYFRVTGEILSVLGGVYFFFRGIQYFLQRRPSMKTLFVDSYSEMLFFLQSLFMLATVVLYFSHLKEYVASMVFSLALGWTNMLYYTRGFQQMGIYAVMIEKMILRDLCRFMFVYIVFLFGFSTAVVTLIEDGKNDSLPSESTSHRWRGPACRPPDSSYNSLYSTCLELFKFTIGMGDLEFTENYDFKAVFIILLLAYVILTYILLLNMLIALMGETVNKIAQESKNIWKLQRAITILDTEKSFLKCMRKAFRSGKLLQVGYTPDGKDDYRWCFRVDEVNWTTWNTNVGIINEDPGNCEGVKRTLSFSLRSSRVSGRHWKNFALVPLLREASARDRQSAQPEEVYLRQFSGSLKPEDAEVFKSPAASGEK
Format: cell-based, human being
Method: Furthermore, preference may be given to compounds according to the invention that cause a 50 percent displacement of capsaicin, which is present at a concentration of 100 nM, in a FLIPR assay with CHO K1 cells which were transfected with the human VR1 gene at a concentration of less than 2,000 nM, preferably less than 1,000 nM, particularly preferably less than 300 nM, most particularly preferably less than 100 nM, even more preferably less than 75 nM, additionally preferably less than 50 nM, most preferably less than 10 nM.
In the process, the Ca^2+ influx is quantified in the FLIPR assay with the aid of a Ca^2+-sensitive dye (type Fluo-4, Molecular Probes Europe BV, Leiden, the Netherlands) in a fluorescent imaging plate reader (FLIPR, Molecular Devices, Sunnyvale, USA), as described hereinafter.
Pharmacological Methods I. Functional Testing Carried Out on the Vanilloid Receptor 1 (VR1/TRPV1 Receptor) […]
The number of cells in the suspension is set to 3×10^5 per mL and 150 μL of this suspension are in each case introduced into a recess in the cell culture plates coated as described hereinbefore. In the incubator the plates are left for two to three days at 37° C., 5% by volume of CO2 and 95% relative humidity. Subsequently, the cells are loaded with 2 μM of Fluo-4 and 0.01% by volume of Pluronic F127 (Molecular Probes Europe BV, Leiden, the Netherlands) in HBSS buffer (Hank's buffered saline solution, Gibco Invitrogen GmbH, Karlsruhe, Germany) for 30 min at 37° C., washed 3 times with HBSS buffer and after further incubation for 15 minutes at room temperature used for Ca^2+ measurement in a FLIPR assay. The Ca^2+-dependent fluorescence is in this case measured before and after the addition of substances (λex=488 nm, λem=540 nm). Quantification is carried out by measuring the highest fluorescence intensity (FC, fluorescence counts) over time.
The FLIPR protocol consists of 2 substance additions. First the compounds to be tested (10 μM) are pipetted onto the cells and the Ca^2+ influx is compared with the control (capsaicin 10 μM). This provides the result in % activation based on the Ca^2+ signal after the addition of 10 μM of capsaicin (CP). After 5 minutes' incubation, 100 nM of capsaicin are applied and the Ca^2+ influx is also determined.
Desensitising agonists and antagonists lead to suppression of the Ca^2+ influx. The % inhibition is calculated compared to the maximum achievable inhibition with 10 μM of capsazepine. Triple analyses (n=3) are carried out and repeated in at least 3 independent experiments (N=4). Starting from the percentage displacement caused by different concentrations of the compounds to be tested of general formula I, IC50 inhibitory concentrations which cause a 50-percent displacement of capsaicin were calculated. Ki values for the test substances were obtained by conversion by means of the Cheng-Prusoff equation (Cheng, Prusoff; Biochem. Pharmacol. 22, 3099-3108, 1973).
The affinity of the compounds of to the invention for the vanilloid receptor 1 (VR1/TRPV1 receptor) was determined as described hereinbefore (pharmacological method I). The compounds of the invention display outstanding affinity to the VR1/TRPV1 receptor (Table 2). In Table 2 the abbreviations below have the following meanings: • Cap=capsaicin • AG=agonist • NE=no effect
The value after the “@” symbol indicates the concentration at which the inhibition (as a percentage) was respectively determined.
Compound CC1CCN(c2nc(C(F)(F)F)ccc2CNC(=O)Nc2ccnc3[nH]ncc23)CC1 [Example 9, 1-((2-(4-Methylpiperidin-1-yl)-6-(trifluoromethyl)pyridin-3-yl)methyl)-3-(1H-pyrazolo[3,4-b]pyridin-4-yl)urea] has an inhibition at 5 µM of 22%.

Same assay, conditions: Cap=capsaicin (100 nM); Ki from IC50 by Cheng-Prusoff equation; read-out: (f) Ki (human being) [nM] Cap
For CC1CCN(c2nc(C(F)(F)F)ccc2CNC(=O)Nc2ccc3cncnc3c2)CC1 [Example 91, 1-((2-(4-Methylpiperidin-1-yl)-6-(trifluoromethyl)pyridin-3-yl)methyl)-3-(quinazolin-7-yl)urea], the Ki was 8 nM.
With CN(C)C1(c2ccccc2)CCN(c2nc(C(F)(F)F)ccc2CNC(=O)Nc2cccc3cnccc23)CC1 [Example 77, 1-((2-(4-(Dimethylamino)-4-phenylpiperidin-1-yl)-6-(trifluoromethyl)pyridin-3-yl)methyl)-3-(isoquinolin-5-yl)urea] the Ki was 4 nM.
CC1CCN(c2nc(C(F)(F)F)ccc2CNC(=O)Nc2cccc3c2ccn3S(C)(=O)=O)CC1 [Example 42, 1-((2-(4-Methylpiperidin-1-yl)-6-(trifluoromethyl)pyridin-3-yl)methyl)-3-(1-(methylsulfonyl)-1H-indol-4-yl)urea] showed a Ki of 2 nM.
Cn1ncc2c(NC(=O)NCc3ccc(C(F)(F)F)nc3OCC3CCC3)cccc21 [Example 48, 1-((2-(Cyclobutylmethoxy)-6-(trifluoromethyl)pyridin-3-yl)methyl)-3-(1-methyl-1H-indazol-4-yl)urea] showed a Ki of 2 nM.
Work on CCCCOc1nc(C(F)(F)F)ccc1CNC(=O)Nc1cccc2c1cnn2C [Example 47, 1-((2-Butoxy-6-(trifluoromethyl)pyridin-3-yl)methyl)-3-(1-methyl-1H-indazol-4-yl)urea] yielded a Ki of 3 nM.
COc1nccc2c(NC(=O)NCc3ccc(C(F)(F)F)nc3N3CCC(C)CC3)cccc12 [Example 80, 1-(1-Methoxyisoquinolin-5-yl)-3-((2-(4-methylpiperidin-1-yl)-6-(trifluoromethyl)pyridin-3-yl)methyl)urea] gave a Ki of 8 nM.
Compound Cc1cc2cc(NC(=O)NCc3ccc(C(F)(F)F)nc3N3CCC(C)CC3)ccc2[nH]1 [Example 24, 1-(2-Methyl-1H-indol-5-yl)-3-((2-(4-methylpiperidin-1-yl)-6-(trifluoromethyl)pyridin-3-yl)methyl)urea] has a Ki of 26 nM.
Compound CN(C)C1(c2ccccc2)CCN(c2nc(C(F)(F)F)ccc2CNC(=O)Nc2cccc3[nH]ccc23)CC1 [Example 39, 1-((2-(4-(Dimethylamino)-4-phenylpiperidin-1-yl)-6-(trifluoromethyl)pyridin-3-yl)methyl)-3-(1H-indol-4-yl)urea] has a Ki of 8 nM.
Compound O=C(NCc1ccc(C(F)(F)F)nc1OC1CCC1)Nc1cccc2ncccc12 [Example 68, 1-((2-Cyclobutoxy-6-(trifluoromethyl)pyridin-3-yl)methyl)-3-(quinolin-5-yl)urea] has a Ki of 2 nM.
With CC1CCN(c2nc(C(F)(F)F)ccc2CNC(=O)Nc2ccc3ccncc3c2)CC1 [Example 84, 1-(Isoquinolin-7-yl)-3-((2-(4-methylpiperidin-1-yl)-6-(trifluoromethyl)pyridin-3-yl)methyl)urea] the Ki was 8 nM.
Compound O=C(NCc1ccc(C(F)(F)F)nc1SC1CCCCC1)Nc1cncc2ccccc12 [Example 19, 1-((2-(Cyclohexylthio)-6-(trifluoromethyl)pyridin-3-yl)methyl)-3-(isoquinolin-4-yl)urea] has a Ki of 4 nM.
CC1CCN(c2nc(C(F)(F)F)ccc2CNC(=O)Nc2ccc3cnccc3c2)CC1 [Example 83, 1-(Isoquinolin-6-yl)-3-((2-(4-methylpiperidin-1-yl)-6-(trifluoromethyl)pyridin-3-yl)methyl)urea] was tested, and the Ki was 7 nM.
Compound CN(C)C1(c2ccccc2)CCN(c2nc(C(F)(F)F)ccc2CNC(=O)Nc2cccc3[nH]ncc23)CC1 [Example 45, 1-((2-(4-(dimethylamino)-4-phenylpiperidin-1-yl)-6-(trifluoromethyl)pyridin-3-yl)methyl)-3-(1H-indazol-4-yl)urea] has a Ki of 7 nM.
Work on Cc1ccc2cccc(NC(=O)NCc3ccc(C(F)(F)F)nc3N3CCC(C)CC3)c2n1 [Example 73, 1-((2-(4-Methylpiperidin-1-yl)-6-(trifluoromethyl)pyridin-3-yl)methyl)-3-(2-methylquinolin-8-yl)urea] yielded a Ki of 24 nM.
CC(=O)n1ccc2c(NC(=O)NCc3ccc(C(F)(F)F)nc3N3CCC(C)CC3)cccc21 [Example 41, 1-(1-Acetyl-1H-indol-4-yl)-3-((2-(4-methylpiperidin-1-yl)-6-(trifluoromethyl)pyridin-3-yl)methyl)urea] showed a Ki of 8 nM.
In the case of O=C(NCc1ccc(C(F)(F)F)cc1C1CCCC1)Nc1cc(F)cc2[nH]ncc12 [Example 54, 1-(2-Cyclopentyl-4-(trifluoromethyl)benzyl)-3-(6-fluoro-1H-indazol-4-yl)urea], the Ki is reported as 7 nM.
CC1CCN(c2nc(C(F)(F)F)ccc2CNC(=O)Nc2ccc3nc(N)sc3c2)CC1 [Example 34, 1-(2-Aminobenzo[d]thiazol-6-yl)-3-((2-(4-methylpiperidin-1-yl)-6-(trifluoromethyl)pyridin-3-yl)methyl)urea] gave a Ki of 50 nM.
In the case of CC1CCN(c2cc(C(C)(C)C)ccc2CNC(=O)Nc2cccc3ncccc23)CC1 [Example 62, 1-(4-Tert-butyl-2-(4-methylpiperidin-1-yl)benzyl)-3-(quinolin-5-yl)urea], the Ki is reported as 1 nM.
Work on CC1CCN(c2nc(C(F)(F)F)ccc2CNC(=O)Nc2cnc3[nH]ncc3c2)CC1 [Example 5, 1-((2-(4-methylpiperidin-1-yl)-6-(trifluoromethyl)pyridin-3-yl)methyl)-3-(1H-pyrazolo[3,4-b]pyridin-5-yl)urea] yielded a Ki of 21 nM.
CC1CCN(c2nc(C(F)(F)F)ccc2CNC(=O)Nc2cccc3c(Cl)nccc23)CC1 [Example 79, 1-(1-Chloroisoquinolin-5-yl)-3-((2-(4-methylpiperidin-1-yl)-6-(trifluoromethyl)pyridin-3-yl)methyl)urea] showed a Ki of 0.8 nM.
CC1CCN(c2nc(C(F)(F)F)ccc2CNC(=O)Nc2cccc3[nH]cnc23)CC1 [Example 58, 1-(1H-Benzo[d]imidazol-4-yl)-3-((2-(4-methylpiperidin-1-yl)-6-(trifluoromethyl)pyridin-3-yl)methyl)urea] showed a Ki of 3 nM.
In the case of Cc1cc2cccc(NC(=O)NCc3ccc(C(F)(F)F)nc3N3CCC(C)CC3)c2cn1 [Example 87, 1-(3-Methylisoquinolin-8-yl)-3-((2-(4-methylpiperidin-1-yl)-6-(trifluoromethyl)pyridin-3-yl)methyl)urea], the Ki is reported as 15 nM.
CC1CCN(c2cc(C(F)(F)F)ccc2CNC(=O)Nc2cccc3ncccc23)CC1 [Example 63, 1-(2-(4-Methylpiperidin-1-yl)-4-(trifluoromethyl)benzyl)-3-(quinolin-5-yl)urea] showed a Ki of 0.7 nM.
For CC1CCN(c2nc(C(F)(F)F)ccc2CNC(=O)Nc2ccc3scnc3c2)CC1 [Example 29, 1-(Benzo[d]thiazol-5-yl)-3-((2-(4-methylpiperidin-1-yl)-6-(trifluoromethyl)pyridin-3-yl)methyl)urea], the Ki was 5 nM.
CC1CCN(c2nc(C(F)(F)F)ccc2CNC(=O)Nc2c(Cl)ccc3[nH]ncc23)CC1 [Example 57, 1-(5-Chloro-1H-indazol-4-yl)-3-((2-(4-methylpiperidin-1-yl)-6-(trifluoromethyl)pyridin-3-yl)methyl)urea] gave a Ki of 3 nM.
Compound Cc1nc2ccc(NC(=O)NCc3ccc(C(F)(F)F)nc3N3CCC(C)CC3)cc2s1 [Example 33, 1-(2-Methylbenzo[d]thiazol-6-yl)-3-((2-(4-methylpiperidin-1-yl)-6-(trifluoromethyl)pyridin-3-yl)methyl)urea] has a Ki of 4 nM.
O=C(NCc1ccc(C(F)(F)F)nc1SC1CCCCC1)Nc1ccc2cccnc2c1 [Example 71, 1-((2-(Cyclohexylthio)-6-(trifluoromethyl)pyridin-3-yl)methyl)-3-(quinolin-7-yl)urea] gave a Ki of 5 nM.
